{"source": "BindingDB's records for patent US20260055108", "about": "(Hutchmed, 2026)", "molecular_target": "T1, Menin [2-610] (UniProt O00255)", "T1 construct": "2-610", "T1 sequence (O00255 whole entry)": "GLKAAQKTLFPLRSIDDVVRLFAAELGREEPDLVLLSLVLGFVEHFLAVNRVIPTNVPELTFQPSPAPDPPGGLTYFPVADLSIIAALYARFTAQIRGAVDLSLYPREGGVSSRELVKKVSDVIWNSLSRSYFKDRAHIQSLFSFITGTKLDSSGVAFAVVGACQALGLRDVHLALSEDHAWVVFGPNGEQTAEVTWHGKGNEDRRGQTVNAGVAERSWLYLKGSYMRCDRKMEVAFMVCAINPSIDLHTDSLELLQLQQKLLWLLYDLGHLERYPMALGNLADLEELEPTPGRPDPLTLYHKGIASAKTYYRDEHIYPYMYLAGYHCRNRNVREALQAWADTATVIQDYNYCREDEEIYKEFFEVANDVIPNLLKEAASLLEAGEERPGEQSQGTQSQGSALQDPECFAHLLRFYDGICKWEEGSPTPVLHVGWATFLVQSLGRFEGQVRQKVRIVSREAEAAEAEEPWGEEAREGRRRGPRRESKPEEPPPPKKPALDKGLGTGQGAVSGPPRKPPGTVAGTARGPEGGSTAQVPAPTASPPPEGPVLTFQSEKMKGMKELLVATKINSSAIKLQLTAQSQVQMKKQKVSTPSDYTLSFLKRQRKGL", "experiment": "Fluorescence Polarization Assay", "description": "4 μL of 5× test compound was added to each reaction well of the 384-well plate, and the corresponding volume of 10% DMSO was added to the control wells. Except the control wells, 8 μL of Menin protein reaction solution was added to each well. The reaction solution was incubated at room temperature for 30 minutes, and then 8 μL of MLL polypeptide reaction solution was added to each well. The final concentrations of DMSO in the test compound wells and control wells were all 2%. The 384-well plate was sealed and incubated at room temperature for 30 minutes in the dark.", "data": [{"compound": "CCNC(=O)N1CCC(CN2CCC3(CC2)CN(c2ncnnc2Oc2ccc(F)cc2C(=O)N(CC)C(C)C)C3)CC1", "note": "[US20260055108, Compound 28]", "values": [{"measurement": "IC50", "result": 2.2, "unit": "nM"}]}]}
